Measurements as given in EP0623599A1 (CIBA-GEIGY AG, priority 1993, dated 1994).
Where two headings read alike, the source gives them in different places.

Experiments:
[1] = Fluorescence change between protonated and deprotonated form of the fluorophore; type: physicochemical; conditions: in Tetrahydrofuran, pH set with 1 M HCl or 1,0 M NaOH, fluorophore 10⁻⁷ mol/l
Excerpt: Die Ergebnisse sind in Tabelle 2 angegeben.

[2] = Optical potassium determination with sensor membrane (decrease of fluorescence intensity); conditions: aqueous KCl, 1 ml/min, PVC membrane with Valinomycin
Experimental: a) Als Trägermaterial wird vorbehandeltes Glas verwendet. Runde Glasscheiben (Durchmesser 18 mm, Dicke 0,17 mm) werden eine Stunde in eine Lösung von 10 Vol-% Dimethyl-dodecylchlorsilan in Isopropanol getaucht. Danach wäscht man die Glasscheiben nacheinander mit je 200 ml Isopropanol, Ethanol und Methanol und trocknet 1 h bei 110 °C. Die hydrophobisierte Oberfläche weist eine verbesserte Haftung der Membranschicht auf. b) Herstellung der Beschichtungslösung. Die folgenden Bestandteile werden zusammen mit 1,5 ml Tetrahydrofuran in eine 2 ml Flasche gegeben und bis zur Lösung der Komponenten geschüttelt: • 1. 80 mg Polyvinylchlorid (Fluka, 81392) • 2. 160 mg Bis-(2-ethylhexyl)sebacat (Weichmacher) • 3. 5 mg Valinomycin • 4. 1,5 mg Kalium-tetrakis(4-fluorphenyl)borat • 5. 2 mg Fluorophor
c) Herstellung von beschichteten Glasträgern. Die Glasträger werden in der Kammer eines Schleuderbeschichtungsapparats (Optocoat OS 35var, Willer Company, CH-8484 Weisslingen) befestigt. Die Kammer wird mit 10 ml Tetrahydrofuran gespült und 2 min bei 3800 Umdrehungen/Minute rotiert. Danach werden 50 µl der jeweiligen Beschichtungslösung auf den Glasträger pipettiert und der Glasträger noch 10 sec rotiert. Man entfernt den mit einer Membran beschichteten Glasträger und trocknet ihn 10 min an der Luft. d) Spektrale Eigenschaften der Membranen. Die beschichteten Glasträger werden in einer optischen Zelle befestigt, in der die Membran mit der Messflüssigkeit in Berührung steht. Die Membran kann in der optischen Zelle optisch angeregt und die Fluoreszenzstrahlung gemessen werden. Die optische Zelle wird in ein Spektrofluorometer (Pekin-Elmer LS-50) gebracht und das Absorptions- und Emmissionsspektrum gemessen. Ferner wird die relative Fluoreszenzquantenausbeute gemäss der von Calvert und Pitts in Photochemistry, Verlag: John Wiley and Sons Inc., Seiten 799 bis 805 (1966) beschriebenen Methode mit Fluorescein als Standard bestimmt. Die Ergebnisse sind in Tabelle 1 angegeben. Tabelle 1:
(§1) Es wird die gleiche Versuchsanordnung wie in Beispiel B1d verwendet und die Absorptions- sowie Emmissionswellenlängen auf die entsprechenden Maxima der in der Membran eingesetzten Fluorophore eingestellt. Die Membran wird mit einer wässrigen KCl-Lösung definierter Konzentration in Kontakt gebracht, indem man die Lösung mit einer Geschwindigkeit von 1 ml/min durch die Zelle pumpt und die Änderung der Fluoreszenzintensität bestimmt. Vor der Messung und nach jeder Messung wird mit Kaliumionen-freien Pufferlösungen gespült und die Fluoreszenzintensität bestimmt, um die Basislinie festzulegen. Die Erniedrigung der Fluoreszenzintensität in Prozent bei der jeweiligen Kaliumkonzentration für den Fluorophor gemäss Beispiel A5 (Membran B1) sind in der Tabelle 3 angegeben.

[3] = pKa determination from fluorescence intensity as a function of pH; conditions: for pKa: 30 vol% methanol / 70 vol% phosphate buffer, pH 6
Excerpt: (§2) Die Fluorophore werden in einem Gemisch aus 30 Vol.-% Methanol und 70 Vol.-% Phosphatpuffer gelöst und verschiedene pH-Werte zwischen 6 und 13 eingestellt. Die Messlösungen werden in eine Küvette gefüllt und die Fluoreszenzintensität mit einem Spektrophotometer gemessen. Die Fluoreszenzintensität wird als Funktion des pH-Wertes aufgetragen und aus dem Wendepunkt der Kurve der pKa-Wert ermittelt. […] Die Konzentration der Fluorophore beträgt jeweils 10⁻⁷ mol/l.

[4] = 30% methanol phosphate buffer, pH 6
Excerpt: as §2

[5] = Optical sodium determination with sensor membrane (decrease of fluorescence intensity); conditions: buffer pH 5, Polyurethan (Tecoflex) membrane with Natrium Ionophor V
Experimental: as §1, with “angegeben. Tabelle 3:” for “angegeben.”
Es wird wie in Beispiel C1 verfahren und die Natriumionenkonzentration mit einer Membran aus 2 mg Fluorophor gemäss Beispiel A5, 30 mg Natriumionophor (4-Octadecanoyloxymethyl-N,N,N,N-tetracyxlohexyl- 1 ,2-phenylendioxy-diacetamid, Fluka Natrium Ionophor V, Katalog Nr. 71738), 2 mg Kalium-tetrakis(4-chlorphenyl)borat, 75 mg Polyurethan (Tecoflex®), 160 mg Bis-2-ethylhexyl-sebacat als Weichmacher und 1 ml Tetrahydrofuran bestimmt. Der Sensor wird einer Pufferlösung bei pH 5 (0,1 Mol Tris-hydroxymethyl-aminomit-methan und 1M HCl) unterschiedlichen Natriumkonzentrationen ausgesetzt. Die Ergebnisse sind in Tabelle 6 angegeben.

[6] = Optical calcium determination with sensor membrane (decrease of fluorescence intensity); conditions: buffer pH 5, Polyurethan (Tecoflex) membrane with Kalzium Ionophor I
Experimental: as §1, with “angegeben. Tabelle 3:” for “angegeben.”
Es wird wie in Beispiel C1 verfahren und die Kalziumionenkonzentration mit einer Membran aus 2 mg Fluorophor gemäss Beispiel A5, 30 mg Kalziumionophor ((-)-(R,R)-N,N-[Bis(11-ethoxycarbonyl)undecyl]-N,N-4,5-tetramethyl-3,6-dioxaoctandia mid, Fluka Kalzium Ionophor I, Katalog Nr. 21192), 6 mg Kalium-tetrakis(4-chlorphenyl)borat, 75 mg Polyurethan (Tecoflex®), 160 mg Bis-2-ethylhexyl-sebacat als Weichmacher und 1 ml Tetrahydrofuran bestimmt. Der Sensor wird einer Pufferlösung bei pH 5 (0,02M NaOH und Essigsäure) unterschiedlichen Kalziumkonzentrationen ausgesetzt. Die Ergebnisse sind in Tabelle 7 angegeben.

| Structure (SMILES) | Änderung Fluoreszenzintensität [1] | pKa [3] | % Erniedrigung Fluoreszenzintensität ([2]; Kalium-Konzentration 0,1 mM) | % Erniedrigung Fluoreszenzintensität ([2]; Kalium-Konzentration 0,5 mM) | % Erniedrigung Fluoreszenzintensität ([2]; Kalium-Konzentration 1,0 mM) | % Erniedrigung Fluoreszenzintensität ([2]; Kalium-Konzentration 5,0 mM) | % Erniedrigung Fluoreszenzintensität ([2]; Kalium-Konzentration 10,0 mM) | % Erniedrigung Fluoreszenzintensität ([2]; Kalium-Konzentration 100,0 mM) | further results |
| --- | --- | --- | --- | --- | --- | --- | --- | --- | --- |
| CCCCCCCCNc1ccc2cc3ccc(NCCCCCCCC)cc3nc2c1 [Beispiel A1, 3,6-Bis(n-octylamino)-acridin] | 44 Prozent | 10 | 5% | 15% | 25% | 39% | 45% | 75% | – |
| CCCCCCCCCCCCCCCCCCCCNc1ccc2cc3ccc(NCCCCCCCCCCCCCCCCCCCC)cc3nc2c1 [Beispiel A2, 3,6-Bis(n-eicosylamino)-acridin] | 41 Prozent | 11.1 | – | – | – | – | – | – | – |
| CCCCCCC(=O)Nc1ccc2cc3ccc(NC(=O)CCCCCC)cc3nc2c1 | 24 Prozent | 10 | – | – | – | – | – | – | – |

Now from value to compound, other results behind:

| Änderung Fluoreszenzintensität [1] | pKa [3] | Structure (SMILES) | % Erniedrigung Fluoreszenzintensität ([2]; Kalium-Konzentration 0,1 mM) | % Erniedrigung Fluoreszenzintensität ([2]; Kalium-Konzentration 0,5 mM) | % Erniedrigung Fluoreszenzintensität ([2]; Kalium-Konzentration 1,0 mM) | % Erniedrigung Fluoreszenzintensität ([2]; Kalium-Konzentration 5,0 mM) | % Erniedrigung Fluoreszenzintensität ([2]; Kalium-Konzentration 10,0 mM) | % Erniedrigung Fluoreszenzintensität ([2]; Kalium-Konzentration 100,0 mM) | further results |
| --- | --- | --- | --- | --- | --- | --- | --- | --- | --- |
| 20 Prozent | – | CCCCCCCCN=c1ccc2c(-c3ccccc3C(=O)O)c3ccc(NCCCCCCCC)cc3oc-2c1 [Beispiel A6] | 36% | 41% | 43% | 48% | 52% | – | pKa-Wert [4]: 12,0 |
| 33 Prozent | 10.3 | CCCCCCCCCCCCCCCCCCCCN=c1ccc2c(-c3ccccc3C(=O)O)c3ccc(N(CC)CC)cc3oc-2c1 [Beispiel A5] | 20% | 35% | 45% | 53% | 60% | 68% | % Erniedrigung Fluoreszenzintensität ([2]; Kalium-Konzentration 0,01 mM): 5%; % Erniedrigung Fluoreszenzintensität ([5]; Natrium-Konzentration 0 mM): 0%; % Erniedrigung Fluoreszenzintensität ([5]; Natrium-Konzentration 3 mM): 15%; % Erniedrigung Fluoreszenzintensität ([5]; Natrium-Konzentration 15 mM): 41%; % Erniedrigung Fluoreszenzintensität ([5]; Natrium-Konzentration 30 mM): 54%; % Erniedrigung Fluoreszenzintensität ([5]; Natrium-Konzentration 90 mM): 72%; % Erniedrigung Fluoreszenzintensität ([5]; Natrium-Konzentration 150 mM): 79%; % Erniedrigung Fluoreszenzintensität ([5]; Natrium-Konzentration 210 mM): 83%; % Erniedrigung Fluoreszenzintensität ([5]; Natrium-Konzentration 300 mM): 86%; % Erniedrigung Fluoreszenzintensität ([6]; Kalzium-Konzentration 0,1 mM): 26,5%; % Erniedrigung Fluoreszenzintensität ([6]; Kalzium-Konzentration 0,5 mM): 43,1%; % Erniedrigung Fluoreszenzintensität ([6]; Kalzium-Konzentration 0 mM): 0%; % Erniedrigung Fluoreszenzintensität ([6]; Kalzium-Konzentration 1,0 mM): 50,6%; % Erniedrigung Fluoreszenzintensität ([6]; Kalzium-Konzentration 3,0 mM): 61,0%; % Erniedrigung Fluoreszenzintensität ([6]; Kalzium-Konzentration 5,0 mM): 65,8%; % Erniedrigung Fluoreszenzintensität ([6]; Kalzium-Konzentration 7,0 mM): 68,1%; % Erniedrigung Fluoreszenzintensität ([6]; Kalzium-Konzentration 10,0 mM): 71,0% |
| 15 Prozent | – | CCCCCCCCCCCCCCCCCC(=O)N=c1ccc2c(-c3ccccc3C(=O)O)c3ccc(N(CC)CC)cc3oc-2c1 [Beispiel A7] | – | – | – | – | – | – | pKa-Wert ([3]; 30 Vol.-% Methanol / 70 Vol.-% Phosphatpuffer, pH 6 to 13, fluorophore 10⁻⁷ mol/l, inflection point of curve): 10,1 |
